Results on one substance are retold here after US20230203175A1, “Anti-CD40 Antibody Combination Treatment for Cancer” (SEAGEN INC., priority 2020, published 2023).

For one test, the system named is FcγIII receptors. Conditions: as described in US20170333556A1; cited from earlier work.
For another test, the system named is CD40 signaling pathway. The settings on record: as described in US20170333556A1; cited from earlier work.
In a further test the test system is cytokines (IFN-γ, IL-10). Briefly: Cytokine production after administration to a patient. It is filed as in vivo. Conditions: when administered to a patient.
The target of a further test is murine CD40 (Mus musculus, UniProt P27512). Briefly: Recognition of murine CD40. It is filed as binding.
murine CD40, sequence (P27512 20-289): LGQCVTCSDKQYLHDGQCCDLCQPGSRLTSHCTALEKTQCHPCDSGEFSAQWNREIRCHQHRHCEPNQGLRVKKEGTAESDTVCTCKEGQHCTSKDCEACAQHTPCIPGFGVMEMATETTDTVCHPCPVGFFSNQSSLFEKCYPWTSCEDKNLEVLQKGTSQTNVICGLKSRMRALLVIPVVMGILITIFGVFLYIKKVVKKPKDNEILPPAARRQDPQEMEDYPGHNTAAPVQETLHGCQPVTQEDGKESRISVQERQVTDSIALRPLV

As for “SEA-CD40: non-fucosylated humanized IgG1 anti-CD40 monoclonal antibody; heavy and light chains SEQ ID NOs: 1 and 2”, the “binding to FcγIII receptors” value with FcγIII receptors is given as “enhanced binding”. The “ability to activate the CD40 signaling pathway in immune cells” value in the test on CD40 signaling pathway is on record as “enhanced ability”. Besides, in the test with cytokines (IFN-γ, IL-10), the “production of cytokines, including interferon-γ (IFN-γ)” value is given as “induce production of cytokines” and the “production of immune-dampening cytokines, such as interleukin-10 (IL-10)” value is recorded as “does not induce production”. Besides, in the test with murine CD40, the “recognition of murine CD40” value is “does not recognize murine CD40”.
